For 109 molecules, melting point results are on record in a melting point compilation (Tetko et al.).

Peptide text beside a SMILES is read from it.

As for `COc1ccc(C2Cc3ccccc3C(C)(O)O2)cc1` (centres undefined), the melting point (usually the temperature of the solid-liquid transition) amounted to 102 °C.

Regarding `CC(=O)OC1CCC2(C)C(=CCC3C2CCC2(C)C3CCC2C2(CBr)OCCO2)C1` (centres undefined), the melting point is 170 to 172 °C.

For `C(C#CCOc1ccccc1)#CCOc1ccccc1`, the melting point amounted to 82 °C.

As to `Cc1nsc(N)n1`, the melting point is 202 to 209 °C.

In turn, `COC(=O)c1ccc(O)c(N)c1` showed a melting point of 143 °C.

`Cc1cccc(C(C)(C)C)c1N=C=O` registered a melting point of 37 °C.

`O=[N+]([O-])c1ccc(C(Cl)=Cc2ccc(C=C(Cl)c3ccc([N+](=O)[O-])cc3[N+](=O)[O-])cc2)c([N+](=O)[O-])c1` returned a melting point of 245 °C.

Turning to `Cc1cc(C)c2cnn(-c3ccccc3)c2n1`, the melting point was 66 °C.

In turn, `O=C1c2ccccc2C(=O)c2cc(O)ccc21` showed a melting point of 306 °C.

Molecule `Nc1c(Br)cc(Br)c(F)c1C(=O)O` came in with a melting point of 235 to 238 °C.

In turn, `O=C1OC2(c3ccccc31)c1ccc(O)c(Br)c1Oc1c2ccc(O)c1Br` returned a melting point of 285 °C.

Consider `CC(C)c1c(C(=O)Nc2ccccc2)c(-c2ccccc2)c(-c2ccc(F)cc2)n1CCC(O)CC(O)CC(=O)O` (centres undefined), for which the melting point was 160 °C.

As to `CCOC(=O)c1cc2c(oc1=O)-c1ccc(OC)cc1CC2`, the melting point is 141 to 142 °C.

For the molecule `COc1ccc(C=O)cn1`, the melting point was in the range of 46 to 54 °C.

Consider `COc1ccc(C=O)cc1Br`, for which the melting point stood at 51 °C.

Turning to `O=[N+]([O-])c1cc([N+](=O)[O-])c(/C(Cl)=C\c2ccccc2)cc1C(Cl)=Cc1ccccc1`, the melting point turned out to be 146 °C.

With `O=[N+]([O-])c1ccc(S)cc1`, the melting point lay in the range of 74 to 77 °C.

Molecule `CCOc1c(NN(C)C)c(=O)c1=O` gave a melting point of 130 to 132 °C.

In turn, `C#CCC1(OC(N)=O)CCCCC1` registered a melting point of 99 °C.

The molecule `CCOC(=O)c1cn[nH]c1NC(=O)Nc1ccccc1` had a melting point of 242 to 245 °C.

In turn, `CCN(C(C)=O)c1ccccc1` had a melting point of 55 °C.

The molecule `OC1OCCOC1O` (centres undefined) had a melting point of 101 °C.

`CC(=O)c1cc(C#N)c(=O)[nH]c1C` showed a melting point of 230 to 232 °C.

`Cc1cc([N+](=O)[O-])c(N)c([N+](=O)[O-])c1`: the melting point came out at 172 °C.

Regarding `O=C(O)C=C(F)C(F)(F)C(F)(F)C(F)(F)C(F)(F)C(F)(F)C(F)(F)C(F)(F)F`, the melting point amounted to 105 °C.

`COc1ccc2c(CBr)cc(=O)oc2c1` returned a melting point of 212 to 217 °C.

`NC(=NO)c1cnccc1C(F)(F)F` registered a melting point of 183 to 185 °C.

As to `CC(=O)OOC(C)=O`, the melting point amounted to 30 °C.

For `O=C(O)Cn1cc(Cl)c(=O)c(Cl)c1`, the melting point was 259 to 263 °C.

On to `CN(C)CC(O)c1ccc(O)c(O)c1` (centres undefined), for which the melting point came to 149 °C.

The molecule `O=[N+]([O-])C1CCCCC1` displayed a melting point of -34 °C.

`O=C(O)COc1ccccc1[N+](=O)[O-]`: the melting point was determined as 158 °C.

Regarding `Sc1nc2ccccc2o1`, the melting point fell in the range of 192 to 195 °C.

Take `OCCCC(Cl)(Cl)CO`: the melting point was 40 to 42 °C.

`c1cc(SSc2ccncc2)ccn1`: the melting point worked out at 76 °C.

`Fc1ccc(F)cc1` came in with a melting point of -13 °C.

`CC(=O)CCn1cc([N+](=O)[O-])nc1C`: the melting point is 98 to 100 °C.

As to `C=CCc1cc(C(C)=O)ccc1O`, the melting point lay in the range of 115 to 118 °C.

Take `O=C(O)CC(F)(F)C(=O)O`: the melting point amounted to 142 °C.

For the molecule `CN1C(=O)COc2ccccc21`, the melting point was 59 °C.

As to `O=C(O)CNC(=O)c1ccc([N+](=O)[O-])cc1`, the melting point is 130 °C.

In the case of `CC1=C(O)C(=O)C2OC2C1=O` (centres undefined), the melting point came to 127 °C.

On to `C=C(C)C(=O)Cl`, for which the melting point is -60 °C.

As to `Cc1cc(OC(=O)C(F)(F)F)c(C)cc1OC(=O)C(F)(F)F`, the melting point came out at 89 °C.

Regarding `CC12CCCC1C1CCC3CC(O)CCC3(C)C1CC2` (centres undefined), the melting point was determined as 148 °C.

In turn, `COC(=O)CS(C)(=O)=O` yielded a melting point of 62 to 63 °C.

`CC(C)(C)c1nnc(NS(=O)(=O)c2ccc(N)cc2)s1` had a melting point of 222 °C.

Regarding `Brc1cccc2cn[nH]c12`, the melting point stood at 128 °C.

On to `O=C(O)c1ccccc1Cn1cncn1`, for which the melting point fell in the range of 206 to 207 °C.

Consider `O=C(Nc1cccnc1Cl)c1ccc(Cl)cc1`, for which the melting point fell in the range of 146 to 148 °C.

Molecule `O=C1CCc2cc(OCCCCc3nnnn3C3CCCCC3)ccc2N1` came in with a melting point of 160 °C.

In the case of `c1ccc(-c2nccnc2-c2ccccc2)cc1`, the melting point was 121 °C.

As to `CC1(C)C(C=C(Cl)C(F)(F)F)C1C(=O)O` (centres undefined), the melting point was found to be 108 °C.

`CN1CCC(N(Cc2cccs2)c2ccccc2)CC1` showed a melting point of 95 °C.

For the molecule `COc1ccc(C(=O)O)cc1[N+](=O)[O-]`, the melting point lay in the range of 191 to 194 °C.

Turning to `Cn1ccnc1CO`, the melting point was in the range of 107 to 111 °C.

`O=[N+]([O-])c1ccccc1Sc1ccccc1` returned a melting point of 82 °C.

On to `c1ccc(N2CCCCC2)cc1`, for which the melting point was found to be 4.7 °C.

`Nc1ccc(Br)cc1N` had a melting point of 62 to 64 °C.

On to `Cc1ccc(C(=O)O)cc1Cl`, for which the melting point fell in the range of 208 to 209 °C.

`N#Cc1ccc(OCc2ccccc2)cc1` registered a melting point of 97 °C.

`CCCCCCCCCCCCOC(=O)c1ccc(N)cc1` came in with a melting point of 82 °C.

As to `O=[N+]([O-])c1ccc(/C=C\c2ccccc2[N+](=O)[O-])cc1`, the melting point is 138 to 139 °C.

In turn, `N#Cc1ccc(N)cc1Cl` returned a melting point of 118 °C.

As to `O=C(O)CCCNC(=O)CCCCC(=O)NCCCC(=O)O`, the melting point was 145 °C.

With `O=C(O)CCCCCCCCCCCCC1C=CCC1` (centres undefined), the melting point turned out to be 68.5 °C.

In turn, `Cc1nn(C)c2sc(CO)cc12` returned a melting point of 133 to 135 °C.

Molecule `COC(=O)c1sccc1-n1cccc1` yielded a melting point of 61 °C.

`COc1ccc(C(=O)C(C#N)=C(SC)SC)cc1` displayed a melting point of 60 to 62 °C.

On to `O=[N+]([O-])c1ccc(Sc2ccc(N=C=S)cc2)cc1`, for which the melting point lay within 124 to 126 °C.

With `N#CC(C#N)=c1c(F)c(F)c(=C(C#N)C#N)c(F)c1F`, the melting point came out at 291 °C.

In turn, `NCC(=O)NCC(=O)NCC(=O)NCC(=O)O` (H-GGGG-OH) yielded a melting point of 300 °C.

As to `FC(F)(F)C1N=NC(N=Cc2ccc(Cl)cc2)=N1` (centres undefined), the melting point was found to be 234 °C.

In turn, `Nc1ccc2oc3c(c2c1)CCCC3` had a melting point of 73 to 75 °C.

Molecule `CCCC(C)C1(CC)C(=O)NC(=S)NC1=O` (centres undefined) displayed a melting point of 130 °C.

Molecule `CN1C(CCl)Nc2cc(Cl)c(S(N)(=O)=O)cc2S1(=O)=O` (centres undefined) showed a melting point of 225 °C.

`N#Cc1ccc(-c2ccsc2)cc1` returned a melting point of 109 to 111 °C.

`C#CC1(O)CCC2C3CCC4=CC(O)CCC4(C)C3CCC21C` (centres undefined) displayed a melting point of 204 °C.

`CNc1ccc2cc3ccc4c(c3nc2c1CO)COCN4S(C)(=O)=O` registered a melting point of 205 °C.

`Cn1cnc2c(NCc3ccccc3)nc(NCCO)nc21`: the melting point lay within 120 to 130 °C.

With `OC1OC(C2COC3(CCCCC3)O2)C2OC3(CCCCC3)OC12` (centres undefined), the melting point fell in the range of 120 to 124 °C.

`CS(=O)(=O)C1CS(=O)(=O)CC1O` (centres undefined) displayed a melting point of 200 to 210 °C.

As to `COc1ccc(C(F)(F)F)cc1CBr`, the melting point came out at 36 °C.

Take `COc1ccc2c(c1)c1c3n2CCN(C)C3=NCC1`: the melting point amounted to 164 °C.

Consider `O=C1OC(=O)c2c(F)cccc21`, for which the melting point fell in the range of 159 to 163 °C.

The molecule `Cc1cccc(C)c1NC(=O)c1cnc(C(C)(C)C)c(Cl)n1` returned a melting point of 146 °C.

Molecule `O=[N+]([O-])c1ccc(CCBr)cc1` registered a melting point of 69 °C.

Consider `O=[N+]([O-])c1cc2c(cc1CO)OCO2`, for which the melting point was found to be 123 °C.

In turn, `COc1ccc(-c2noc(C)c2C(=O)Cl)cc1` came in with a melting point of 79 to 81 °C.

Turning to `C1CCC(OC2CCCCC2)CC1`, the melting point was -36 °C.

For the molecule `C1CN2CCC1CC2`, the melting point came out at 158 °C.

For `COc1cccc(CCC(=O)O)c1`, the melting point was found to be 45 °C.

The molecule `COC(=O)c1cc2oc(C=O)cc2n1C` had a melting point of 162 to 163 °C.

Consider `CC(=O)Nc1ccc(Br)cc1OC(F)(F)F`, for which the melting point turned out to be 136 °C.

As for `O=C(O)COc1nn(Cc2ccccc2)c2ccccc12`, the melting point came to 160 °C.

Consider `Cc1c(C)c2c(c(C)c1O)CCC(C)(CCCC(C)CCCC(C)CCCC(C)C)O2` (centres undefined), for which the melting point lay in the range of 2.5 to 3.5 °C.

As to `N#Cc1c(-c2ccccc2)c2c(O)[nH]n(-c3ccccc3)c-2nc1=S`, the melting point is 142 °C.

`O=C(Nc1ccccc1)OC1CCCCC(OC(=O)Nc2ccccc2)C1` (centres undefined) had a melting point of 170 °C.

As to `O=C(c1cccs1)c1noc(-c2ccc(Cl)cc2)c1S(=O)(=O)c1ccccc1`, the melting point is 125 °C.

With `Cc1ccc(S(=O)(=O)Cl)cc1[N+](=O)[O-]`, the melting point was 38 to 40 °C.

For `NC(=O)c1cc(Cl)ccc1Cl`, the melting point is 160 °C.

In the case of `O=[N+]([O-])c1ccc(C(Cl)C(Cl)c2cccc(C(Cl)C(Cl)c3ccc([N+](=O)[O-])cc3[N+](=O)[O-])c2)c([N+](=O)[O-])c1` (centres undefined), the melting point lay within 90 to 108 °C.

Turning to `C=CCOc1c(Br)cc(C(C)(C)c2cc(Br)c(OCC=C)c(Br)c2)cc1Br`, the melting point is 119 °C.

In the case of `COC(=O)C=C(CCl)OC`, the melting point is 25 °C.

As for `Cc1ccc(C(=O)C2=NOC3C(=O)N(c4ccc(F)cc4)C(=O)C23)cc1` (centres undefined), the melting point was determined as 173 °C.

Molecule `Cc1cncc(C#N)c1` displayed a melting point of 84 °C.

`NC(=S)Nc1ccccc1Cl` showed a melting point of 146 °C.

`O=c1c2ccccc2nc2n1CCC2O` (centres undefined): the melting point was 210 °C.

Molecule `CC(=O)N1C(=O)/C(=C/c2ccccc2)c2cc3c(cc21)N(C(C)=O)C(=O)/C3=C/c1ccccc1` showed a melting point of 256 °C.
